{
  "source": "patent US20160051665A1",
  "about": "“INDUCTION OF IMMUNE RESPONSE” (priority 2010, published 2016)",
  "key": {"[1]": {"tested_on": "woodchuck hepatitis virus (WHV)", "assay": "serum WHV DNA by dot blot hybridization in chronic WHV carrier woodchucks", "assay_type": "in vivo", "conditions": "for WHV DNA, Av(range): serum", "protocol": "(§1) All experimental procedures involving woodchucks were performed under protocols approved by the Cornell University Institutional Animal Care and Use Committee. Woodchucks were born to WHV-negative females in environmentally controlled laboratory animal facilities and inoculated at 3 days of age with 5 million infectious doses of a standardized WHV inoculum (23). Woodchucks were selected as chronic WHV carriers based on persistent detection of WHV surface antigen (WHsAg) and WHV DNA in serum prior to treatments. All animals were free of HCC at the beginning of the study as determined by hepatic ultrasound examination and normal serum activity of γ-glutamyl-transferase (GGT).\n(§2) Twenty adult chronically infected woodchucks were stratified by age, sex, body weight, serum viral load, and serum GGT activity into four treatment groups of five animals each. Drug was administered orally at 100 mg/kg (in sterile water), chosen after an initial dose finding trial. […] The subunit vaccine consisted of 22-nm WHsAg particles, purified by zonal ultracentrifugation from serum of WHV7P1-infected WHV carriers (24), inactivated with formalin, and adsorbed onto alum. Prior to alum adsorption, vaccine was tested in naïve, WHV-susceptible animals and no residual virus was detected. Purified WHsAg was not pretreated with enzymes that remove preS sequences.\nBlood samples were obtained for WHV DNA analysis and serological testing while animals were under general anesthesia (ketamine 50 mg/kg and xylazine 5 mg/kg intramuscularly). Samples were taken prior to drug administration on the first day of treatment and at the indicated time points.\nSerum WHV DNA was measured quantitatively by dot blot hybridization (assay sensitivity, ≧1.0×10^7 WHV genome equivalents per ml [WHVge/ml]) (25). Serum WHsAg, antibodies to WHV core antigen (anti-WHc), and WHV surface antigen (anti-WHs) were determined with WHV-specific enzyme immunoassays (26). Serum biochemical measurements included serum GGT, alkaline phosphatase (ALP), and marker of hepatocellular injury alanine aminotransferase (ALT), aspartate aminotransferase (AST), and sorbitol dehydrogenase (SDH) (25).\nWoodchucks chronically infected with WHV experienced significant immunological responses to envelope proteins following immunization with WHsAg-containing vaccines, especially in the context of low viral and antigen loads following treatment with an effective antiviral agent, 1-(2-fluoro-5-methyl-beta-L-arabinofuranosyl)-uracil (L-FMAU) (29, 35). Since BuCas treatment might be expected to reduce the amount of MHBs in the circulation and/or alter its immunological profile, the response to BuCas administration along with WHsAg vaccine was investigated. […] Animals were scored as positive if cells proliferated above the cut-off value of 2: 3.1. […]"}, "[2]": {"assay": "serum drug level after single oral dose in woodchucks", "assay_type": "in vivo", "conditions": "woodchuck, single oral dose of 100 mg/kg", "protocol": "as §2"}, "[3]": {"tested_on": "WHV surface antigen (WHsAg)", "assay": "serum WHsAg enzyme immunoassay in chronic WHV carrier woodchucks", "assay_type": "in vivo, woodchuck", "conditions": "for WHsAg, Av(range): serum", "protocol": "as §1\nas §2, with “sequences. […]” for “sequences.”\nSerum WHV DNA was measured quantitatively by dot blot hybridization (assay sensitivity, ≧1.0×10^7 WHV genome equivalents per ml [WHVge/ml]) (25). Serum WHsAg, antibodies to WHV core antigen (anti-WHc), and WHV surface antigen (anti-WHs) were determined with WHV-specific enzyme immunoassays (26). […]\nWoodchucks chronically infected with WHV experienced significant immunological responses to envelope proteins following immunization with WHsAg-containing vaccines, especially in the context of low viral and antigen loads following treatment with an effective antiviral agent, 1-(2-fluoro-5-methyl-beta-L-arabinofuranosyl)-uracil (L-FMAU) (29, 35). […] Animals were scored as positive if cells proliferated above the cut-off value of 2: 3.1. […]"}, "[4]": {"tested_on": "HBV-containing HepG2.2.15 cells", "assay": "interferon-γ ELISpot: peptide-primed CTLs against BuCas-treated target cells", "assay_type": "cell-based, human", "conditions": "BuCas 1 mg/ml twice at 3 day interval, FIG. 2B", "protocol": "Heparinized blood from healthy HLA-A2 donors was purchased from Research Blood Components, LLC, (Brighton, Mass.). Peripheral blood mononuclear cells were purified and cultured as described (13, 21). After initial stimulation with synthetic peptide, T cells were re-stimulated with CD4/CD8 T cell depleted autologous monocytes pulsed with synthetic peptide at 10 μg/ml for 5 days. IL-2 treatment and in vitro re-stimulation were repeated thrice prior to use of in vitro expanded T cells in ELISpot assays.\nIn vitro expanded CTLs were used as effectors in ELISpot assays to assess antigen stimulated interferon-γ release according to the manufacturer's instructions (BD-Pharmingen, San Jose, Calif.). Target cells were HepG2 human hepatoma cells (HBV negative; American Type Culture Collection) or HBV-containing HepG2.2.15 cells (22). […]\nPeptides presented on the surface of a cell in the context of the MHC class I complex should be recognized with high sensitivity upon incubation with cognate peptide-primed CTLs, with specific killing of the target cells. […] Target cell recognition was quantified by interferon-γ ELISpot assay.\nThe ability of in vitro generated CTLs to recognize and secrete interferon-γ was evaluated by ELISpot assay. […] The P value was calculated from a Student's t-Test analysis of experimental results."}, "[5]": {"conditions": "chronic WHV carrier woodchucks, all times tested"}},
  "data": [
    {"smiles": "CCCC(=O)O[C@H]1CN2CC[C@H](O)[C@@H]2[C@@H](O)[C@H]1O", "note": "[BuCas, 6-O-butanoyl castanospermine]", "values": [
      {"measurement": "viremia, in words", "setting": "[1]; [5]", "value": "not altered significantly"},
      {"measurement": "antiviral response in woodchucks", "setting": "[1]; drug treated chronic WHV carrier woodchucks", "value": "no detectable antiviral response"},
      {"measurement": "WHV DNA, Av(range)", "setting": "[1]; week 0 (baseline), chronic WHV carrier woodchucks", "value": "2.7(.4-7.0) genome equivalents (×10^10)"},
      {"measurement": "WHV DNA, Av(range)", "setting": "[1]; week 10 (4 weeks after first vaccination), UD = <E07 GE, detection limit of dot blot hybridization", "value": "1.9(.9-4.8) genome equivalents (×10^10)"},
      {"measurement": "Cmax, range", "setting": "[2]", "value": "5000 to 12100", "unit": "ng/mL"},
      {"measurement": "average observed Cmax", "setting": "[2]", "value": 7700, "unit": "ng/mL"},
      {"measurement": "antigenemia, in words", "setting": "[3]; [5]", "value": "not altered significantly"},
      {"measurement": "WHsAg, Av(range)", "setting": "[3]; week 0 (baseline)", "value": ".38(.28-.43) optical density units"},
      {"measurement": "WHsAg, Av(range)", "setting": "[3]; week 10", "value": ".42(33-.52) optical density units"},
      {"measurement": "presentation of the D-peptide epitope by target cells", "setting": "[4]; CTLs primed with D-peptide", "value": "increased significantly"},
      {"measurement": "presentation of the N-peptide epitope by target cells", "setting": "[4]; CTLs primed with N-peptide", "value": "reduced"}
    ]}
  ]
}
